Data taken from patent US7253194B2, “Compounds and inhibitors of phospholipases” (The University of Queensland, priority 2000, dated 2007).
pIC50: −log10 of the molar value.

target: T1, human non-pancreatic sPLA2 (type IIa) (Homo sapiens, UniProt P14555); assay: Assay for inhibition of human non-pancreatic sPLA2 (type IIa), mixed micelle colorimetric assay; type: biochemical; settings: recombinant hIIa-PLA2; substrate diheptanoyl thio-phosphatidyl choline, DTNB detection; IC50 from Dixon plot extrapolation; read-out: IC50, inhibition of human secretary PLA2
T1 construct: Garvan Institute for Medical Research (provided, not a commercial vendor)
T1 sequence (P14555 21-144): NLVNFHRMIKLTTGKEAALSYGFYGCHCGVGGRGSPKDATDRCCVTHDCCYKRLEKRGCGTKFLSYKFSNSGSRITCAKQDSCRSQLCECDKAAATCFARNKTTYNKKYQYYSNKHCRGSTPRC
From the text: Assay for Inhibition of Human Non-Pancreatic sPLA2 (type IIa)
A mixed nucelle colorimetric assay utilising a microtitreplate reader was used as described by Reynolds, L. J.; Hughes, L. L.; Dennis, E. A. “Analysis of human synovial fluid phospholipase A2 on short chain phosphatidylcholine-mixed micelles: Development of a spectrophotometric assay suitable for a microplate reader”. Anal Biochem. 1992, 204, 190-197.
Reagents were obtained commercially in the sPhospholipase A2 Assay Kit, Cayman Chemical Company MI USA. Buffer (25 mM Tris HCl at pH 7.5, 1 mg/mL BSA, 0.3 mM Triton X-100, 100 mM KCl, 10 mM CaCl2), substrate (diheptanoyl thio-phosphatidyl choline), DTNB (5,5′-dithiobis(2-nitrobenzoic acid)) and a 96 well plate were all provided. Recombinant hIIa-PLA2 was provided by the Garvan Institute for Medical Research. […] Standard inhibitor solutions were prepared from anhydrous DMSO. All samples were run in triplicate including the blank and control samples. Data was collected on a Molecular Devices Spectramax 250 Microplate Spectrophotometer using Softmax Pro Microplate Analysis Software v2.21. […] Thio-PC is processed by s-PLA2 and the free thiol produced is detected with DTNB (Ellman's Reagent). 5-Thio-2-nitrobenzoic acid is detected spectrophotometrically at […]. IC50's were determined by assaying inhibitors at a range of concentrations.

pIC50 | SMILES
6.42 | O=C(O)CCC(Cc1ccc(OCc2ccccc2)cc1)NC(=O)CCCCCc1ccccc1 (racemic) [Compound 86, (RS)-5-(4-Benzyloxy-phenyl)-4-(6-phenyl-hexanoylamino)-pentanoic acid]
6.36 | O=C(O)CCC(Cc1ccc(OCc2ccccc2)cc1)NC(=O)CCCCCCCc1ccccc1 (racemic) [Compound 87, (RS)-5-(4-Benzyloxy-phenyl)-4-(8-phenyl-octanoylamino)-pentanoic acid]
5.13 | COc1ccccc1CCCCCCC(=O)NC(CCC(=O)O)Cc1ccc(OCc2ccccc2)cc1 (racemic) [Compound 88, (RS)-5-(4-Benzyloxy-phenyl)-4-[7-(2-methoxy-phenyl)-heptanoylamino]-pentanoic acid]
5.09 | CC(=O)Nc1cccc(CCCCCCC(=O)NC(CCC(=O)O)Cc2ccc(OCc3ccccc3)cc2)c1 (racemic) [Compound 89, (RS)-4-[7-(3-Acetylamino-phenyl)-heptanoylamino]-5-(4-benzyloxy-phenyl)-pentanoic acid]
5.97 | O=C(O)CCC(Cc1ccc(OCc2ccccc2)cc1)NC(=O)CCCCCCc1cccc([N+](=O)[O-])c1 (racemic) [Compound 90, (RS)-5-(4-Benzyloxy-phenyl)-4-[7-(3-nitro-phenyl)-heptanoylamino]-pentanoic acid]
5.82 | O=C(O)CCC(Cc1ccc(OCc2ccccc2)cc1)NC(=O)CCCCCCc1cccnc1 (racemic) [Compound 91, (RS)-5-(4-Benzyloxy-phenyl)-4-(7-pyridin-3-yl-heptanoylamino)-pentanoic acid]
6.37 | O=C(O)CCC(Cc1ccc(OCc2ccccn2)cc1)NC(=O)CCCCCCc1ccccc1 (racemic) [Compound 95, (RS)-4-(7-Phenyl-heptanoylamino)-5-[4-(pyridin-2-ylmethoxy)-phenyl]-pentanoic acid]
6.34 | O=C(O)CCC(Cc1ccc(OCc2cccnc2)cc1)NC(=O)CCCCCCc1ccccc1 (racemic) [Compound 96, (RS)-4-(7-Phenyl-heptanoylamino)-5-[4-(pyridin-3-ylmethoxy)-phenyl]-pentanoic acid]
5.82 | O=C(O)CCC(CCc1ccccc1)NC(=O)CCCCCCc1ccccc1 (racemic) [Compound 102, (RS)-6-Phenyl-4-(7-phenyl-heptanoylamino)-hexanoic acid]
5.24 | O=C(O)CC[C@@H](Cc1cn(Cc2ccccc2)c2ccccc12)NC(=O)CCCCCCc1ccccc1 [Compound 19, (S)-5-(1-Benzyl-1H-indol-3-yl)-4-(7-phenyl-heptanoylamino)-pentanoic acid]
5.54 | O=C(O)CC[C@@H](Cc1cn(CCCc2ccccc2)c2ccccc12)NC(=O)CCCCCCc1ccccc1 [Compound 20, (S)-4-(7-Phenyl-heptanoylamino)-5-[1-(3-phenyl-propyl)-1H-indol-3-yl]-pentanoic acid]
5.60 | O=C(O)CCC(Cc1cn(CCCc2ccccc2)cn1)NC(=O)CCCCCCc1ccccc1 (centres unmarked) [Compound 32, 4-(7-Phenyl-heptanoylamino)-5-[1-(3-phenyl-propyl)-1H-imidazol-4-yl]-pentanoic acid]
6.18 | O=C(CCCCCCc1ccccc1)N[C@@H](COP(=O)(O)CCCOc1ccccc1)Cc1ccc(OCc2ccccc2)cc1 [Compound 57, (R)-(3-Phenoxy-propyl)-phosphonic acid mono-[3-(4-benzyloxy-phenyl)-2-(7-phenyl-heptanoylamino)-propyl]ester]
7.62 | O=C(CCCCCCc1ccccc1)NC(COP(=O)(O)CCCO)Cc1ccc(OCc2ccccc2)cc1 (centres unmarked) [Compound 62, (3-Hydroxy-propyl)-phosphonic acid mono-[3-(4-benzyloxy-phenyl)-2-(7-phenyl-heptanoylamino)-propyl]ester]
6.45 | O=C(CCCCCCc1ccccc1)N[C@@H](CCc1nnn[nH]1)Cc1ccc(OCc2ccccc2)cc1 [Compound 66, (S)-7-Phenyl-heptanoic acid [1-(4-benzyloxy-benzyl)-3-(1H-tetrazol-5-yl)-propyl]-amide]
7.00 | O=C(O)CC[C@@H](CCc1ccc(Oc2ccccc2)cc1)NC(=O)CCCCCCc1ccccc1 [Compound 106, 6-(4Phenoxy-phenyl)-4R-(7-phenyl-heptanoylamino)-hexanoic acid]
5.77 | O=C(O)CC[C@@H](CCc1ccc(Oc2ccccc2)cc1)NC(=O)CCCCCCc1cccnc1 [Compound 107, 6-(4-Phenoxy-phenyl)-4R-(7-pyridin-3-yl-heptanoylamino)-hexanoic acid]
